Literature values as cited in patent publication US20240248099A1, “BIOMARKERS FOR AGE-RELATED MACULAR DEGENERATION” (BELITE BIO, LLC, priority 2021, published 2024).

Target: T1, RBP4 (Homo sapiens, UniProt P02753)
T1 construct: host or cells: serum of AMD patients (endogenous circulating protein)

## CC1=C(/C=C/C(C)=C/C=C/C(C)=C/C(=O)Nc2ccc(O)cc2)C(C)(C)CCC1 [fenretinide]
246 AMD patients with only geographic atrophy, 100 mg or 300 mg fenretinide or placebo, 2 years, especially in the higher dose group
  incidence of choroidal neovascularization onset: reduction in the incidence of choroidal neovascularization onset
Overall cohort, insufficient number of subjects achieving serum RBP4 less than 1 μM
  growth rate of geographic atrophy, overall cohort: no statistically significant retardation of the growth rate of geographic atrophy
Patients who achieved RBP4 levels below 1 μM (approximately 20 μg/ml) after fenretinide treatment
  rate of geographic atrophy progression versus serum RBP4 level: a lower serum RBP4 level was correlated with a slower rate of geographic atrophy progression
